This note sets out measurements from patent US7470669B2, “Isolated polypeptide comprising a leptin fragment” (Serono Genetics Institute, S.A., priority 1999, dated 2008).

One test concerns LSR. In words: LSR activity (oleate-induced 125I-LDL binding, uptake, degradation) in PLC cells. It is filed as cell-based, human. Particulars: for LSR activity in human cells: 22-mer peptide, increasing concentrations. The protocol:
FIGS. 5A, 5B, 5C, and 5D show the stimulatory effect of leptin on LSR activity in PLC and suppression of this effect by 81B antibody. For FIGS. 5A, 5B, and 5C, cultured PLC cells were incubated at 37° C. for 30 min with increasing concentrations of human recombinant leptin in Buffer A. After this, 0.5 mM oleate and 20 μg/mL ^125I-LDL were added, and cells were further incubated at 37° C. for 2 h. Cells were washed, and the amount of oleate-induced ^125I-LDL bound (5A), internalized (5B) and degraded (5C) were measured. For FIG. 5D, PLC cells were incubated at room temperature for 30 min with 200 μg/mL anti-LSR peptide 81B or 170 antibody, followed by incubation at 37° C. for 30 min without (open bar) or with (hatched bar) 10 ng/mL human leptin. Oleate (0.5 mM) and ^125I-LDL (20 μg/mL) were added, and the monolayers were left at 37° C. for 3 h. After washing, the amount of ^125I-LDL binding was determined, and is shown here as the mean±SD of triplicate determinations.
FIGS. 8A and 8B show the effect of mouse or human leptin on LSR activity in primary cultures of rat hepatocytes or a human liver cell line (PLC). Primary cultured rat hepatocytes were obtained commercially (In Vitro Tech). The PLC cell line was obtained from ATCC repository and maintained in culture. Rat hepatocytes 72 h after plating (8A) or confluent monolayers of PLC (8B) were incubated 30 min at 37° C. with 0 (closed bar) or 10 ng/mL of human (open bar) or mouse (hatched bar) recombinant leptin. Following this, 0.5 mM oleate and 20 μg/mL ^125I-LDL were added and the cells were further incubated for 2 h at 37° C. […] The cells were washed, and the amount of oleate-induced ^125I-LDL bound and degraded was measured as described previously (Bihain, B. E., and Yen, F. T. (1992). Free fatty acids activate a high-affinity saturable pathway for degradation of low density lipoproteins infibroblasts from a subject homozygous for familial hypercholesterolemia. Biochemistry 31, 4628-4636.
FIGS. 35A and 35B show graphs of LSR activity and mRNA expression measured in PLC cells preincubated 24 h with leptin. In FIG. 35A, PLC monolayers were incubated 24 h at 37° C. with (o) or without (n) 200 ng/mL human recombinant leptin. After washing with PBS, cells were incubated 30 min at 37° C. with increasing concentrations of human leptin, followed by a 2 h incubation at 37° C. with 0.8 mM oleate and 20 μg/mL ^125I-LDL. Cells were washed, and the amount of oleate-induced ^125I-LDL binding was measured as described previously. Results are shown as the mean of triplicate determinations. In FIG. 35B, PLC monolayers were incubated 24 h at 37° C. with 0, 200, or 400 ng/mL human recombinant leptin. After washing with PBS, the cells were harvested. Total RNA was prepared from the cell pellets, and Northerns were performed to detect LSR mRNA, using GAPDH probe as loading control as described previously. Northern blots were scanned on the Phosphorimager (Molecular Dynamics, Sunnyvale, Calif.). Densitometric analysis of the images was performed using the software ImageQuant. Results are shown as the amount of LSR signal relative to that of GAPDH (mean±SD, n=3/condition). […]

Test [1] relates to bovine brain capillary endothelial cells. In words: Leptin transcytosis in blood-brain barrier in vitro model. It counts as cell-based. The following applies: for leptin transport / transcytosis: 10 ng/mL 125I-leptin + 50 μg/mL peptide. The method, then:
Cells were incubated with ^125I-leptin alone (10,000 dpm/ng) (closed squares), with 1 μg/mL unlabelled leptin (triangles), 50 μg/mL MP (circles), 50 μg/mL HP (open squares), or 2 mg/mL lactoferrin (asterisks).
Human leptin transport through the blood-brain barrier (BBB) is studied using an in vitro model (Dehouck, et al J Neurochem 54:1798-801, 1990 hereby incorporated herein by reference in its entirety including any figures, tables, or drawings). This model closely mimics the in vivo situation with regard to the selective passage of nutrients and drugs through the cerebro-vascular endothelium. […] Briefly, this model consists of a co-culture of bovine brain capillary endothelial cells (ECs) and rat astrocytes (FIG. 31). The astrocytes are seeded on the plastic of a six-well dish and grown for 3 weeks. A collagen-coated filter is then set in each dish and bovine ECs are plated on the upper-side of the filter. ECs form a confluent monolayer in 5 days and they are used for experiments after 16 days of coculture with astrocytes.
Leptin transcytosis: Experiments were performed on brain capillary endothelial cells in coculture with astrocytes for 16 days. On the day of the experiment, ECs were transferred to a clean 6-well plate containing 2 mL of Ringer-Hepes buffer (see, FIG. 32). At time 0, 1 mL Ringer Hepes containing ^125I-leptin was placed in the upper compartment. After 30, 60, 120, or 180 min incubation at 37° C. on a rocking platform, the insert was transferred into another well of a six-well plate to minimize the possible passage of substances from the lower to the upper compartment. At the end of the experiment, the amount of radioactivity of each well was counted. […]
The transport of molecules through the endothelial monolayer was determined for each time point as % passage: % passage of radiolabelled molecule through the endothelium: dpm found in the lower compartment at a time point divided by the initial dpm found in the upper compartment: % transport at 30 min=(lower dpm t30/upper dpm)*100.

As for “CHLPWASGLETLDSLGGVLEAS (listed as Homo sapiens) [human peptide, human leptin fragment residues 117-138, 22-mer]”, the “LSR activity in human cells” value with LSR (PLC cells) is listed as “agonistic”. For the same substance, in test [1], the “leptin transport / transcytosis” value is “significant increase”.

For “CSLPQTSGLQKPESLDGVLEAS (listed as Mus musculus) [mouse peptide, mouse leptin fragment residues 117-138, 22-mer]”, in the test on LSR (PLC cells), the “LSR activity in human cells” value is on record as “antagonist”. Moreover, the “leptin transport / transcytosis” value in test [1] is recorded as “no significant effect”.

Regarding “leptin: plasma protein of 16 kDa produced by adipocytes; recombinant human or mouse leptin, species depends on the experiment”, in the test on LSR (PLC cells, human recombinant leptin), the “leptin concentration at which the effect on LSR activity was observed” value is not below 10 ng/mL. In addition, the “oleate-induced LSR binding uptake and degradation of 125I-LDL” value with LSR (PLC cells, human recombinant leptin, 30 min preincubation, 0.5 mM oleate) is given as “directly increased”. The “leptin concentration needed for maximal stimulatory effect” value in the test on LSR (PLC preincubated 24 h with 200 ng/mL leptin) was determined as 100 ng/mL. The “reduction of the maximal stimulatory effect on oleate-induced 125I-LDL binding” value with LSR (PLC preincubated 24 h with 200 ng/mL leptin, then short incubation with leptin) is recorded as “about 50%”. The “reduction of the amount of 125I-leptin transported” value in test [1] (10 ng/mL 125I-leptin + 1 μg/mL cold leptin) was “approximately 30%”.
